How the values were obtained:
[1] = test system: HL-60; assay: Antitumor activity against human HL60 cells xenografted athymic nude mouse assessed as delay in tumor growth time at 25 mg/kg, sc administered QD; format: functional; details: route subcutaneous
[2] = test system: NCI/ADR-RES; assay: Growth inhibition of human NCI/ADR-RES cells after 48 hrs by sulforhodamine B assay; format: functional
[3] = Cytotoxicity against african green monkey Vero cells after 48 hrs by neutral red assay; format: cell-based; details: chlorocebus sabaeus, read-out: TC50
[4] = test system: HT-29; assay: Growth inhibition of human HT-29 cells after 48 hrs by sulforhodamine B assay; format: functional; details: HT-29, 48 h
[5] = test system: OVCAR-3; assay: Growth inhibition of human OVCAR-3 cells after 48 hrs by sulforhodamine B assay; format: functional; details: OVCAR-3, 48 h
[6] = test system: Leishmania donovani; assay: Antileishmanial activity against Leishmania donovani promastigotes after 48 hrs by alamar-blue assay; format: functional, organism-based
[7] = test system: MDA-MB-435; assay: Growth inhibition of human MDA-MB-435 cells after 48 hrs by sulforhodamine B assay; format: functional; details: MDA-MB-435, 48 h
[8] = test system: T47D; assay: Growth inhibition of human T47D cells after 48 hrs by sulforhodamine B assay; format: functional
[9] = test system: SNB-19; assay: Growth inhibition of human SNB19 cells after 48 hrs by sulforhodamine B assay; format: functional; details: SNB-19, 48 h
[10] = test system: HL-60; assay: Antitumor activity against human HL60 cells xenografted athymic nude mouse at 50 mg/kg, sc administered QD for 10 days relative to control; format: functional; details: route subcutaneous
[11] = test system: Mus musculus; assay: Toxicity in human HL60 cells xenografted athymic nude mouse assessed as mortality at 50 mg/kg, sc administered QD for 10 days; format: organism-based, HL-60; design: dose 50 mg/kg, route subcutaneous; details: in vivo, 240 h
[12] = test system: Mus musculus; assay: Toxicity in human HL60 cells xenografted athymic nude mouse assessed as body weight loss at 50 mg/kg, sc administered QD for 10 days relative to control; format: organism-based, HL-60; design: dose 50 mg/kg, route subcutaneous; details: in vivo, 240 h
[13] = test system: HUVEC; assay: Antiangiogenic activity against HUVEC assessed as inhibition of capillary-like structure formation by NCI antiangiogenesis assay; format: functional, cell-based; details: Homo sapiens
[14] = test system: MDA-MB-231; assay: Growth inhibition of human MDA-MB-231 cells after 48 hrs by sulforhodamine B assay; format: functional; details: MDA-MB-231, 48 h
[15] = test system: HL-60; assay: Antitumor activity against human HL60 cells xenografted athymic nude mouse assessed as delay in tumor growth time at 50 mg/kg, sc administered QD; format: functional; details: route subcutaneous
[16] = test system: ACHN; assay: Growth inhibition of human ACHN cells after 48 hrs by sulforhodamine B assay; format: functional
[17] = Selectivity index, ratio of TC50 for african green monkey (Cercopithecus aethiops) Vero cells to IC50 for chloroquine-sensitive Plasmodium falciparum D6; format: toxicity, cell-based
[18] = test system: Mus musculus; assay: Toxicity in human HL60 cells xenografted athymic nude mouse assessed as body weight loss at 25 mg/kg, sc administered QD for 10 days relative to control; format: organism-based, HL-60; design: dose 25 mg/kg, route subcutaneous; details: in vivo, 240 h
[19] = test system: K562; assay: Growth inhibition of human K562 cells after 48 hrs by sulforhodamine B assay; format: functional; details: K562, 48 h
[20] = test system: MOLT-4; assay: Growth inhibition of human MOLT4 cells after 48 hrs by sulforhodamine B assay; format: functional; details: MOLT-4, 48 h
[21] = test system: Mus musculus; assay: Toxicity in human HL60 cells xenografted athymic nude mouse assessed as mortality at 25 mg/kg, sc administered QD for 10 days; format: organism-based, HL-60; design: dose 25 mg/kg, route subcutaneous; details: in vivo, 240 h
[22] = test system: HL-60; assay: Antitumor activity against human HL60 cells xenografted athymic nude mouse at 25 mg/kg, sc administered QD for 10 days relative to control; format: functional; details: route subcutaneous
[23] = test system: HCC 2998; assay: Growth inhibition of human HCC2998 cells after 48 hrs by sulforhodamine B assay; format: functional; details: HCC 2998, 48 h
[24] = test system: A498; assay: Growth inhibition of human A498 cells after 48 hrs by sulforhodamine B assay; format: functional; details: A498, 48 h
[25] = test system: SF-539; assay: Growth inhibition of human SF539 cells after 48 hrs by sulforhodamine B assay; format: functional; details: SF-539, 48 h
[26] = test system: HUVEC; assay: Antiangiogenic activity against HUVEC assessed as inhibition of VEGF-induced cell migration by NCI antiangiogenesis assay; format: functional, cell-based; details: Homo sapiens
[27] = test system: HUVEC; assay: Antiangiogenic activity against HUVEC assessed as growth inhibition by NCI antiangiogenesis assay; format: functional, cell-based; details: Homo sapiens

| SMILES | GI50 [2] | CC50 at 48 h [3] | GI50 [4] | GI50 [5] | IC50 [6] | IC90 [6] | GI50 [7] | GI50 [8] | GI50 [9] | IC50 [13] | GI50 [14] | GI50 [16] | selectivity ratio [17] | GI50 [19] | GI50 [20] | GI50 [23] | GI50 [24] | GI50 [25] | IC50 [26] | IC50 [27] | further results |
| --- | --- | --- | --- | --- | --- | --- | --- | --- | --- | --- | --- | --- | --- | --- | --- | --- | --- | --- | --- | --- | --- |
| C[C@H]1[C@@H](OCC(O)CO[C@@H]2C[C@@H]3CC[C@@H](C)[C@@H]4CC[C@@]5(C)OO[C@@]34[C@H](O2)O5)O[C@@H]2O[C@@]3(C)CC[C@H]4[C@H](C)CC[C@@H]1[C@@]24OO3 (some centres not stated) | 0.34 µM | > 7620 µM | 0.268 µM | 0.171 µM | 5 µM | 16 µM | 0.301 µM | 0.027 µM | 27.6 µM | 30.8 µM | 45.8 µM | 0.248 µM | > 23800 | 0.06 µM | 0.298 µM | 7.02 µM | 0.686 µM | 8.64 µM | 1.8 µM | 77 µM | Activity [1]: 16 days; T/C [10]: 34%; Activity [11]: Non-toxic; Activity [12]: 5%; Activity [15]: 34 days; Activity [18]: 2%; Activity [21]: Non-toxic; T/C [22]: 68% |
| C[C@H]1[C@@H](O[C@H]2CC[C@@H](O[C@H]3O[C@@H]4O[C@@]5(C)CC[C@H]6[C@H](C)CC[C@@H]([C@H]3C)[C@@]46OO5)CC2)O[C@@H]2O[C@@]3(C)CC[C@H]4[C@H](C)CC[C@@H]1[C@@]24OO3 | 0.077 µM | > 7340 µM | 0.026 µM | 0.015 µM | 7.7 µM | 77.1 µM | 0.028 µM | < 0.005 µM | 0.099 µM | 38.8 µM | 0.092 µM | 0.027 µM | > 1590 | 0.014 µM | 0.02 µM | 0.018 µM | 0.04 µM | 0.02 µM | 3.3 µM | 42 µM | Activity [1]: 8 days; T/C [10]: 34%; Activity [11]: Non-toxic; Activity [12]: 17%; Activity [15]: 36 days; Activity [18]: 3%; Activity [21]: Non-toxic; T/C [22]: 50% |
| C[C@H]1[C@@H](OCC(=O)CO[C@H]2O[C@@H]3O[C@@]4(C)CC[C@H]5[C@H](C)CC[C@@H]([C@H]2C)[C@@]35OO4)O[C@@H]2O[C@@]3(C)CC[C@H]4[C@H](C)CC[C@@H]1[C@@]24OO3 | 0.04 µM | > 7640 µM | < 0.01 µM | < 0.01 µM | 10.4 µM | 80.3 µM | 0.017 µM | < 0.01 µM | 13.3 µM | > 50 µM | 3.33 µM | 0.026 µM | > 6800 | < 0.01 µM | < 0.01 µM | < 0.01 µM | 15.4 µM | 10.1 µM | 28.5 µM | 57 µM | – |
| C[C@H]1[C@@H](OCCO[C@H]2O[C@@H]3O[C@@]4(C)CC[C@H]5[C@H](C)CC[C@@H]([C@H]2C)[C@@]35OO4)O[C@@H]2O[C@@]3(C)CC[C@H]4[C@H](C)CC[C@@H]1[C@@]24OO3 | 0.243 µM | > 80 µM | 0.041 µM | – | – | – | 0.572 µM | 0.015 µM | > 100 µM | – | 15 µM | 0.257 µM | > 48 | 0.014 µM | 0.042 µM | 6.92 µM | 77.2 µM | 0.3 µM | – | – | – |
| COCC(CO[C@H]1O[C@@H]2O[C@@]3(C)CC[C@H]4[C@H](C)CC[C@@H]([C@H]1C)[C@@]24OO3)O[C@H]1O[C@@H]2O[C@@]3(C)CC[C@H]4[C@H](C)CC[C@@H]([C@H]1C)[C@@]24OO3 (some centres not stated) | 0.533 µM | > 745 µM | 0.019 µM | 0.065 µM | – | – | 0.443 µM | 0.014 µM | 0.249 µM | – | 13.1 µM | 0.189 µM | > 43 | 0.027 µM | 0.027 µM | 0.108 µM | 0.148 µM | 4.04 µM | – | – | – |
| C[C@H]1[C@@H](OCC(CO[C@H]2O[C@@H]3O[C@@]4(C)CC[C@H]5[C@H](C)CC[C@@H]([C@H]2C)[C@@]35OO4)OC(=O)CCC(=O)O)O[C@@H]2O[C@@]3(C)CC[C@H]4[C@H](C)CC[C@@H]1[C@@]24OO3 (some centres not stated) | 0.207 µM | – | < 0.01 µM | 0.02 µM | – | – | 0.013 µM | < 0.01 µM | 10.1 µM | 45.8 µM | 0.345 µM | 0.126 µM | – | 0.23 µM | 0.29 µM | – | 13.8 µM | 0.616 µM | 45.3 µM | 56 µM | Activity [1]: 30 days; Activity [11]: Toxic; Activity [18]: 1%; Activity [21]: Non-toxic; T/C [22]: 23% |
| C[C@H]1[C@@H](O[C@H]2CC[C@H](O[C@H]3O[C@@H]4O[C@@]5(C)CC[C@H]6[C@H](C)CC[C@@H]([C@H]3C)[C@@]46OO5)CC2)O[C@@H]2O[C@@]3(C)CC[C@H]4[C@H](C)CC[C@@H]1[C@@]24OO3 | 0.13 µM | > 7340 µM | 0.011 µM | 0.067 µM | 7.4 µM | 18.5 µM | 0.07 µM | < 0.01 µM | 0.372 µM | – | 0.52 µM | 0.042 µM | 1360 | 0.041 µM | 0.099 µM | 0.018 µM | 0.376 µM | 0.092 µM | – | – | – |
| C[C@H]1[C@H](OCCO[C@H]2O[C@@H]3O[C@@]4(C)CC[C@H]5[C@H](C)CC[C@@H]([C@H]2C)[C@@]35OO4)O[C@@H]2O[C@@]3(C)CC[C@H]4[C@H](C)CC[C@@H]1[C@@]24OO3 | 0.055 µM | > 800 µM | 0.038 µM | 1.28 µM | – | – | 0.045 µM | 0.016 µM | 8.26 µM | – | 0.534 µM | 0.224 µM | > 25 | 0.02 µM | 0.015 µM | 0.067 µM | 8.11 µM | 0.063 µM | – | – | – |
